Experimental data taken from paper PMC9814779, “A triple farnesoid X receptor and peroxisome proliferator-activated receptor α/δ activator reverses hepatic fibrosis in diet-induced NASH in mice” (Communications Chemistry, 2020).

How the values were obtained:
[1] = system: HEK293T and U2OS cells; assay: Multiplex high-content live-cell toxicity assay; assay type: cell-based; details: seven concentrations between 100 nM and 100 µM; 2, 12 and 24 h
Method: Before proof-of-concept in vivo evaluation, we profiled stability and cytotoxicity of the triple modulator 41 in vitro. […] To determine cytotoxicity, we employed a multiplex high-content life-cell imaging screen[24] on HEK293T and U2OS cells. For this, the cells were treated with fluorescent probes to detect Annexin V as apoptosis marker (Annexin V Alexa488), dead cells (Yo-Pro3), and DNA/nucleus (Hoechst33342). Cells were then incubated with 41, OCA, or elafibranor at seven concentrations between 100 nM and 100 µM, and cell health was determined by fluorescence imaging after 2, 12, and 24 h (Fig. 6g–i and Supplementary Fig. 5).
Supplementary Methods for in Vitro Characterization
Cytotoxicity was assessed in a high content screen on two different cell lines, HEK293T (ATCC® CRL-1573™) and U2OS (ATCC®HTB-96™), essentially as described previously6. In brief, cells were cultured in DMEM plus L-Glutamine (high glucose) supplemented with 10 % FBS (Gibco) and Penicillin/Streptomycin (Gibco). […]
After 2 h, 12 h and 24 h, cellular shape and fluorescence was analyzed on an automated, high-content confocal microscope (CQ1, Yokogawa). […]
50 ms, 40%; bright field, 300ms, 100% transmission, one centered field per well, 7 z stacks per well with 55 µm spacing. Images were analyzed with the Pathfinder software (Yokogawa). Cells were detected and gated as previously described6. […]
The solubilized test compound (5 μL, final concentration 10 μM in phosphate buffer (0.1 M, pH 7.4)) was preincubated at 37 °C in 432 μL of phosphate buffer (0.1 M, pH 7.4) together with a 50 μL NADPH regenerating system (30 mM glucose-6-phosphate, 4 U/mL glucose-6-phosphate dehydrogenase, 10 mM NADP, 30 mM MgCl2). […] The supernatants were analyzed and test compound was quantified by HPLC: mobile phase: MeOH 83%/H2O 17%/formic acid 0.1%; flow-rate: 1 mL/min; stationary phase: MultoHigh Phenyl phase, 5 μm, 250×4, precolumn, phenyl, 5 μm, 20×4; detection wavelength: 330 and 254 nm; injection volume: 50 μL. […]

[2] = system: diet-induced mouse model of NASH; details: cited from earlier work
[3] = system: human full-length PPAR response element (PPRE) reporter; assay: Full-length PPAR response element (PPRE) reporter gene assay in HEK293T cells; assay type: cell-based; details: HEK-293T, mean ± SEM, n = 3
From the text: For the hybrid reporter gene assays, the previously reported Gal4-fusion receptor plasmids pFA-CMV-hPPARα-LBD[29], pFA-CMV-hPPARδ-LBD[29], pFA-CMV-hPPARγ-LBD[29], pFA-CMV-hLXRα-LBD[30], pFA-CMV-hLXRβ-LBD[30], pFA-CMV-hRXRα-LBD[31], pFA-CMV-hRXRβ-LBD[31], pFA-CMV-hRXRγ-LBD[31], pFA-CMV-hRARα-LBD[31], pFA-CMV-hRARβ-LBD[31], pFA-CMV-hRARγ-LBD[31], pFA-CMV-hVDR-LBD[31], and pFA-CMV-hCAR-LBD[31] coding for the hinge region and LBD of the canonical isoform of the respective nuclear receptor were used. pFR-Luc (Stratagene) was used as reporter plasmid for Gal4 hybrid reporter gene assays. pcDNA3-hFXR[32] and pSG5-hRXR[33] served for receptor overexpression in the full-length FXR assay and pGL3basic (Promega Corporation, Fitchburg, WI, USA) with a shortened construct of the BSEP promoter cloned into the SacI/NheI cleavage site in front of the luciferase gene[34] was used as reporter. PPRE-pGL3[35] contains the human full-length PPRE (cloned into the SacI/NheI cleavage site in front of the luciferase gene) and was used as reporter plasmid for the full-length PPRE reporter gene assay. pRL-SV40 (Promega) was used in all assays for normalization of transfection efficiency and cell growth.
Before transfection, medium was changed to Opti-MEM without supplements. […] Luminescence was measured with a Spark 10 M luminometer (Tecan Deutschland GmbH). […]

[4] = target: T1, human PPARγ ligand-binding domain (Gal4 chimera) (Homo sapiens, UniProt P37231); assay: Gal4 hybrid reporter gene assay, PPARγ; assay type: cell-based; set-up: Emax: dose or concentration left out as unconfirmed
T1 construct: coding for the hinge region and LBD of the canonical isoform of the respective nuclear receptor; expressed in transfected cells; host or cells: HEK293T
T1 sequence (P37231 238-503 limits assumed): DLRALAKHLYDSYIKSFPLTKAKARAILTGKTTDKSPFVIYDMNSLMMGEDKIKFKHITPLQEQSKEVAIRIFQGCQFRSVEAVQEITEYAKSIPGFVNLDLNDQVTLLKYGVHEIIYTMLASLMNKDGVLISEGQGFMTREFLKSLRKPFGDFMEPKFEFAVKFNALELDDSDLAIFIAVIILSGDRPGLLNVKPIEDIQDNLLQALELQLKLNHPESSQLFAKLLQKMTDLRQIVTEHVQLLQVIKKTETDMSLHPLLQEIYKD

Compound | cytotoxicity (cell health, apoptosis, necrosis, lysis) [1] | anti-steatotic effect ([2]; OCA 30 mg/kg, OCA/elafibranor 30 mg/kg + 10 mg/kg, elafibranor 10 mg/kg) | anti-fibrotic activity ([2]; equivalent, previously reported study) | EC50 [3] [µM] | EC50 [4] [µM] | Emax ([4]; read-out: max. rel. act. PPARγ) [%]
CC[C@H]1[C@@H](O)[C@@H]2[C@H](CC[C@]3(C)[C@@H]([C@H](C)CCC(=O)O)CC[C@@H]23)[C@@]2(C)CC[C@@H](O)C[C@@H]12 [OCA, 6α-ethylchenodeoxycholic acid, reference compound] | non-toxic up to 100 µM concentration over 24 h | marked reductions in steatosis | only weak anti-fibrotic activity compared to vehicle |  |  | 
CC(C)(C)c1ccc(C(=O)Nc2cccc(CCC(=O)O)c2)c(NC(=O)c2ccc(-c3ccco3)cc2)c1 [compound 41, 3-(3-[4-{tert-Butyl}-2-{4-(2-furyl)}benzamido]phenyl)propanoic acid] | no notable toxic effects up to high 100 µM concentration |  |  | 0.17 | 2.4 ± 0.1 | 16
